Experimental data taken from US7037644B1, “Means and methods for monitoring non-nucleoside reverse transcriptase inhibitor antiretroviral therapy and guiding therapeutic decisions in the treatment of HIV/AIDS” (ViroLogic, Inc., priority 1998, dated 2006).

Assays:
Test in all cases: Phenotypic susceptibility assay (patient RTV)
Assay type in all cases: cell-based, HIV-1
[1] = system: RTV-675, patient 98-675 (RT A98G); settings: patient RTV pool
Procedure: (§1) The resistance test vectors containing a functional luciferase gene cassette were constructed and host cells were transfected with the resistance test vector DNA. The resistant test vectors contained patient-derived reverse transcriptase and protease sequences that were either susceptible or resistant to the antiretroviral agents, such as nucleoside reverse transcriptase inhibitors, non-nucleoside reverse transcriptase inhibitors and protease inhibitors. […] The IC50 values were determined by plotting percent drug inhibition vs. log10 drug concentration.
(§2) Host cells were seeded in 10-cm-diameter dishes and were transfected several days after plating with resistance test vector plasmid DNA and the envelope expression vector. […] HIV capsid protein (p24) levels in the harvested cell culture media were determined by an EIA method as described by the manufacturer (SIAC; Frederick, Md.). […] The inhibitory effect of the drug was determined using the following equation: % luciferase inhibition=1−(RLUluc [drug]÷RLUluc)×100 where RLUluc [drug] is the relative light unit of luciferase activity in infected cells in the presence of drug and RLUluc is the Relative Light Unit of luciferase activity in infected cells in the absence of drug. […]

[2] = system: RTV-209, patient 97-209 (RT E138A, Y188L); settings: patient RTV pool
Procedure: as §1, §2

[3] = system: RTV-652, patient 98-652 (RT V108I); settings: patient RTV pool; below 1 = increased susceptibility
Procedure: as §1, §2

CC(C)Nc1cccnc1N1CCN(C(=O)c2cc3cc(NS(C)(=O)=O)ccc3[nH]2)CC1 [delavirdine]
decrease in susceptibility (fold, IC50) [1]: 2.1 fold | decrease in susceptibility (fold, IC50) [2]: 75 fold | change in susceptibility (fold, IC50) [3]: 0.97 fold

Cc1ccnc2c1NC(=O)c1cccnc1N2C1CC1 [nevirapine]
decrease in susceptibility (fold, IC50) [1]: 6 fold | decrease in susceptibility (fold, IC50) [2]: greater than 800 fold | change in susceptibility (fold, IC50) [3]: 5 fold
